Patent US6281250A, “Retinyl ethers, derivatives and analogues and inhibition of breast carcinogenesis” (Southern Research Institute, priority 1999, dated 2001)
“And” between values parts separate entries of the source, which are not always exact repeats. Equal entries are not always repeated. “Also recorded” adds a separate entry of the source. Where two headings read alike, the source gives them in different places.

How the values were obtained:
mouse-skin papillomas = assay: Suppression of DMBA-initiated and TPA-promoted mouse-skin papillomas; format: in vivo; conditions: mouse-skin papilloma assay
From the text: (§1) Earlier, several alkyl, alkenyl, or alkynyl retinyl ethers had been assayed for inhibition of TPA-induced ornithine decarboxylase (ODC) in mouse skin and for the suppression of DMBA-initiated and TPA-promoted mouse-skin papillomas (Shealy et al., 1997). In comparison with control groups, these retinyl ethers were ineffective. Only a few representatives of the benzyl ethers were selected for tests in these assays. […] Because of these and the earlier results (Shealy et al., 1997), testing of retinyl benzyl ethers in the ODC and papilloma assays was discontinued.

[1] = system: TPA-induced ornithine decarboxylase (ODC); assay: Inhibition of TPA-induced ornithine decarboxylase (ODC) in mouse skin; format: in vivo
From the text: as §1

[2] = target: T1, cellular retinol-binding protein (CRBP) (Rattus norvegicus, UniProt P02696); assay: Binding to cellular retinol-binding protein (CRBP): inhibition of [3H]retinol binding, sucrose density-gradient sedimentation; conditions: for Percent Inhibition of [3H] Retinol Binding (CRBP Assay): 150-fold molar excess of unlabelled test retinoid, rat testes cytosol
T1 construct: portions of rat testes cytosol (1 mg protein) were incubated; from tissue; host or cells: rat testes cytosol
T1 sequence (P02696 1-135): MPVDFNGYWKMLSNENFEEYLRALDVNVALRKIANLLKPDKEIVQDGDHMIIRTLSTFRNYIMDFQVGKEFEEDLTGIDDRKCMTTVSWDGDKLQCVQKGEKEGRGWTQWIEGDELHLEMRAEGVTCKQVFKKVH
Protocol: Binding affinities of the retinyl ethers for CRBP were determined by sucrose, density-gradient, sedimentation analysis as described before (Sani et al., 1980). Briefly, portions of rat testes cytosol (1 mg protein) were incubated with [^3 H]retinol (50 pmol) in the presence or absence of a 150-fold molar excess of unlabeled retinol or the test retinoids. The preparations after dialysis were analyzed by 5-20% sucrose density gradient sedimentation. For measuring the competitive binding of the unlabeled retinoids, inhibition of [^3 H]retinol binding to CRBP by unlabeled retinol is regarded as 100%. The mean and standard deviation calculated from the relative inhibitions obtained from multiple determinations were used as the relative binding affinities of the various retinyl ethers.
The group of retinyl benzyl ethers has now been evaluated for binding to CRBP. Binding to CRBP, as defined for Table I, at approximately 60% or higher was rated as strong; at 40-60%, as moderate; at 20-40%, as low.
^a Per cent inhibition of binding of tritiated retinol to CRBP by a
150-fold molar excess of the unlabelled test retinoid (Sani et al., 1980,

[3] = system: NADPH-requiring enzymes in rat liver microsomes; conditions: literature; cited from earlier work
[4] = target: T1, cellular retinol-binding protein (CRBP); conditions: Sani, 1993; Sani et al., 1996; Shealy et al., 1997; cited from earlier work
[5] = cited from earlier work; for stability in refluxing ethanol: 24 hours or similar, protected from light and air, Shealy et al, 1997
[6] = rat, in feed; Shealy et al., 1997; cited from earlier work
[7] = system: serum retinol-binding protein (RBP); conditions: 150-fold molar excess; Sani et al., 1996; cited from earlier work
[8] = Shealy et al., 1997, cited from earlier work; for toxicity in mammary carcinogenesis study: 2 mmol/kg of diet; for toxic dose in the feed after 90 days: Sprague-Dawley rats
[9] = Toxicity of retinyl ethers in mice by gavage during 28-29 days
Protocol: Toxicological evaluations involving measurement of body weights and observations of clinical signs characteristic of retinoid toxicity were accomplished as previously described (Lin et al., 1996).
RTMBE and two of its analogues, together with RME and RPE, were selected for estimation of their toxicities to mice when administered during 28-29 days by gavage in corn oil (Table 8). Mice were evaluated for changes in body weight and for signs of clinical retinoid toxicity (hypervitaminosis A) including alopecia, scaly skin, and limping. In the first experiment, these retinyl ethers were given at equimicromolar doses at three dose levels. The retinyl benzyl ethers (RTMBE, 3c, and 3e) were then tested at higher doses in a second experiment.

[10] = system: carcinogen-induced mammary cancer; conditions: cited from earlier work; for suppression of MNU-induced mammary cancer: Thompson et al., 1978 / Shealy et al.
[11] = Mammary tissue-to-plasma concentration after intravenous dosing; format: in vivo, rat (female Sprague-Dawley); conditions: rat, 5 mg/kg i.v., after 24 hr, read-out: ratio of mammary tissue-to-plasma concentrations
[12] = system: MNU-induced mammary cancer; assay: Short-term (90-day) assay against MNU-induced mammary cancer in rats (Expts. 2 and 3); format: in vivo, rat (female Sprague-Dawley)
Protocol: Retinoid diet mixtures were stored at 4° C. […] The animals were palpated for mammary tumors 2×/week. […] Also, five rats/group had complete necropsies performed.
The 2,5-dimethoxybenzyl (3b) and 4-methoxybenzyl (3e) ethers were tested in the same way in a 90-day study. […] The 2,5-dimethybenzyl (3c) and the 2,3-dimethoxybenzyl (3h) ethers, together with RTMBE for comparison, were likewise assayed according to the same methodology. Prior to the beginning of this study, specimens of the retinoid-diet mixtures were placed under the conditions that were employed during the storage and feeding of RTMBE, 3c, and 3h. The specimens were extracted with butanol, and the extracts were analyzed by HPLC. […] Testing of 3c and 3h was discontinued, but the RTMBE study was continued until the duration of the study was 180 days (Table 6). The results were similar to those of Experiment 1 (Table 3). The averages of the number of tumors per rat were reduced by 32-35%; in addition, the averages of the tumor weights per rat was 56-70% lower than the average tumor burden of the control group.
and was continued until the studies of 3b, 3c, 3e, and 3h were terminated
90 days after administration of MNU. The RTMBE experiment was continued
until 180 days after MNU administration (Table VI).
kilogram of Teklad diet.

[13] = Stability of retinyl ethers in storage and in solution; format: physicochemical; conditions: weakly acidic ethanol solution
[14] = system: MNU-induced mammary tumors
Protocol: The methods employed in the preparation of diets, analyses of retinoid-dietspecimens, and dietary treatment with retinoids of MNU-induced mammary carcinogenesis in Sprague-Dawley rats were described previously (Grubbs et al., 1995; Shealy et al., 1997). Briefly, diets were prepared by mixing each retinoid with Wayne meal or Teklad (4%) mash diet. For each kg of diet, the retinoid was dissolved in 12 g ethanol, 19 g trioctanoin, 0.05 mL Tenox 20, and 0.05 mL d,1-alpha tocopherol prior to incorporation into the feed using a Patterson-Kelly blender. Retinoid diet mixtures were stored at 4° C. Portions of each retinoid-diet mixture were analyzed for the added retinoid to ensure homogeneity. Female Sprague-Dawley rats received an i.v. injection of MNU (45 mg/kg body weight) at 50 days of age. Diet supplementation with retinoids was initiated three days after MNU. A group of rats receiving retinyl acetate (1 mmol/kg of diet) served as the positive control. The animals were palpated for mammary tumors 2×/week. At termination of the study, mammary tumors were processed for histological classification. Also, five rats/group had complete necropsies performed. The tissues were examined histologically for pathological lesions as additional toxicological evaluation. Extracts of the liver and mammary gland (5 rats/group) were analyzed by HPLC for retinyl palmitate and/or for the dosed retinoid. Statistical analyses of cancer incidence and latency were determined using logrank analysis, while differences in cancer multiplicity were determined employing the Armitage test.
^b Average number of palpable mammary tumors.
^c Diet supplementation with retinoids was initiated at 52 days of age
and was continued until the study was terminated 180 days after
administration of MNU. Treatment with retinoids is stated in millimoles of
retinoid per kilogram of diet (Wayne meal).
^d Female Sprague-Dawley rats received one i.v. injection of MNU (50
mg/kg of body weight) at 50 days of age.

[15] = system: serum retinol-binding protein (RBP); assay: Binding to serum retinol-binding protein (RBP): inhibition of [3H]retinol binding; conditions: % of that of retinol
[16] = Shealy et al., 1997; cited from earlier work
[17] = oral gavage in corn oil, 28-29 days
[18] = Expt. 2, 0.5 mmol/kg diet, 90 days
[19] = Expt. 2, 1 mmol/kg diet, 90 days
[20] = Expt. 2, 2 mmol/kg diet, 90 days

What does the source list for COc1ccc(COC/C=C(C)/C=C/C=C(C)/C=C/C2=C(C)CCCC2(C)C)cc1OC [Compound 3a, Retinyl 3,4-Dimethoxybenzyl Ether]?
inhibition of papilloma formation (mouse-skin papillomas): ineffective in inhibiting papilloma formation; activity in ODC assay [1]: not active in the ODC assay; Percent Inhibition of [3H] Retinol Binding (CRBP Assay) [2]: 62 ± 8%

For COC/C=C(C)/C=C/C=C(C)/C=C/C1=C(C)CCCC1(C)C [RME, retinyl methyl ether], which “conversion (demethylation) to retinol or its analogue” value [3] is on record?
Its value is “demethylated to retinol in rat liver; also recorded: converted, respectively, to retinol or its TMMP analogue; also recorded: demethylation of RME by microsomal oxidases to retinol”.

What about the “binding to CRBP” value [4] of the same compound?
The value was “bind to cellular retinol-binding protein (CRBP)”.

And the “stability in refluxing ethanol” value [5]?
The value was “only minor degradation”.

And the “accumulation of retinyl palmitate in the liver” value [6]?
Its value is “a toxic effect produced by efficacious amounts”.

What about the “inhibition of binding of tritiated retinol (RBP), relative to retinol” value [7] of the same compound?
Its value is 100%.

And the “toxicity in mammary carcinogenesis study” value [8]?
The value was “RME was (at 2 mmol/kg of diet)”.

What about the “toxic dose in the feed after 90 days” value [8] of the same compound?
Its value is > 1 mmole/kg of diet and < 2 mmole/kg of diet.

And the “Toxic Dose” value [9, 17]?
Its value is > 20 mg/kg day and < 40 mg/kg day.

What about the “toxic dose from body-weight data” value [9, 17] of the same compound?
The value was less than 40 mg/kg/day.

And the “suppression of 7,12-DMBA-induced mammary cancer” value ([10]; rats, Grubbs et al, 1977)?
Its value is “suppress”.

What about the “suppression of MNU-induced mammary cancer” value ([10]; rats, 1997) of the same compound?
Its value is “suppress”.

For COc1ccc(OC)c(COC/C=C(C)/C=C/C=C(C)/C=C/C2=C(C)CCCC2(C)C)c1 [Compound 3b, Retinyl 2,5-Dimethoxybenzyl Ether], which “inhibition of papilloma formation” value (mouse-skin papillomas) is on record?
The value was “ineffective in inhibiting papilloma formation”.

And the Kp at 24 h [11]?
The Kp at 24 h was 38 ± 20.

And the “effectiveness compared with RTMBE” value ([12]; 90-day assays, MNU-induced mammary carcinogenesis)?
The value was “less effective than was RTMBE”.

What about the “reductions in the number of tumors per rat” value ([12]; 90-day study, 1 and 2 mmol/kg of diet) of the same compound?
Its value is 26-52%.

What about the “effectiveness in reducing the number of tumors per rat” value ([12]; 90 days, in feed) of the same compound?
Its value is “effective”.

And the “Tumors, % of Control Gp.” value [12, 18]?
Its value is 77%.

What about the “Tumors, Avg. No. per Rat” value [12, 18] of the same compound?
The value was 2.7.

What about the “Tumors, % of Control Gp.” value [12, 19] of the same compound?
Its value is 48%.

What about the “Tumors, Avg. No. per Rat” value [12, 19] of the same compound?
The value was 1.7.

And the “Tumors, % of Control Gp.” value [12, 20]?
The value was 74%.

What about the “Tumors, Avg. No. per Rat” value [12, 20] of the same compound?
The value was 2.6.

And the “activity in ODC assay” value [1]?
Its value is “not active in the ODC assay”.

And the “binding to CRBP, in words” value ([2]; 150-fold molar excess)?
Its value is “good binder to CRBP”.

And the “Percent Inhibition of [3H] Retinol Binding (CRBP Assay)” value [2]?
The value was 59 ± 13%.

And the “stability in weakly acidic ethanol (formation of anhydroretinol, 4)” value [13]?
Its value is 4 is isolated.

Which “stability in refluxing ethanol” value [5] does the source give for C#CCOC/C=C(C)/C=C/C=C(C)/C=C/C1=C(C)CCCC1(C)C [RPE, retinyl propynyl ether] here?
The value was “intramolecular cyclization”.

And the “stability in the solid state and in solution” value ([5]; Shealy et al., 1996, 1997)?
Its value is “slowly undergoes an intramolecular Diels-Alder reaction”.

And the “reduction of average number of tumors per rat” value ([14]; after 90 days, 2 mmol/kg diet (Table 7))?
The value was 44%.

And the “reduction in the average number of tumors per rat” value ([14]; by the end of the 180-day study, 2 mmol/kg diet (Table 7))?
The value was 16%.

What about the “% of Control Gp., Day 90” value ([14]; with MNU, 0.5 mmol/kg diet) of the same compound?
Its value is 74%.

What about the “% of Control Gp., Day 180” value ([14]; with MNU, 0.5 mmol/kg diet) of the same compound?
Its value is 97%.

What about the “Avg No. Per Rat (palpable mammary tumors), Day 90” value ([14]; with MNU, 0.5 mmol/kg diet) of the same compound?
Its value is 1.7.

And the “Avg No. Per Rat (palpable mammary tumors), Day 180” value (shortened to “Avg No. Per Rat … Day 180”) ([14]; with MNU, 0.5 mmol/kg diet)?
Its value is 6.2.

And the “% of Control Gp., Day 90” value ([14]; with MNU, 2 mmol/kg diet)?
The value was 56%.

What about the “% of Control Gp., Day 180” value ([14]; with MNU, 2 mmol/kg diet) of the same compound?
The value was 84%.

And the “Avg No. Per Rat (palpable mammary tumors), Day 90” value ([14]; with MNU, 2 mmol/kg diet)?
Its value is 1.3.

And the “Avg No. Per Rat … Day 180” value ([14]; with MNU, 2 mmol/kg diet)?
The value was 5.4.

What about the “Avg No. Per Rat … Day 180” value ([14]; without MNU, 0.5 mmol/kg diet) of the same compound?
The value was 0.

And the “Avg No. Per Rat … Day 180” value ([14]; without MNU, 2 mmol/kg diet)?
The value was 0.

What about the “inhibition of [3H] retinol-binding (RBP), relative to that of retinol” value [15] of the same compound?
Its value is 70%.

What about the “recovery from the feed of rats” value [16] of the same compound?
The value was “recoverable from the feed of rats”.

And the “accumulation in mammary tissue” value [6]?
Its value is “accumulated in rat mammary tissue”.

What about the “accumulation of retinyl palmitate in the liver” value [6] of the same compound?
The value was “did not cause; also recorded: some increase in retinyl palmitate in the liver”.

What about the “toxicity in mammary carcinogenesis study” value [8] of the same compound?
The value was “not toxireas”.

And the “toxic dose in the feed after 90 days” value [8]?
The value was > 2 mmole/kg of diet.

What about the NOAEL ([9]; mouse, in vivo, po) of the same compound?
Its NOAEL is 43 mg/kg/day.

And the “Toxic Dose” value [9, 17]?
The value was greater than 43 mg/kg day.

What about the “reduction of average number of tumors per rat” value ([10]; earlier 90-day study, 2 mmol/kg of diet, MNU, Shealy et al., 1997) of the same compound?
Its value is 48%.

And the “suppression of MNU-induced mammary cancer” value ([10]; rats, 1997)?
The value was “inhibited the development of MNU-induced mammary cancer; also recorded: more effective than retinyl acetate”.
